Laboratory results taken from patent US20240391900A1, “RIP1 KINASE INHIBITOR AND USE THEREOF” (SIRONAX (BEIJING) CO., LTD., priority 2021, published 2024).

Test system: HT-29 human colon cancer cells
Assay: In vitro biological activity assay: inhibition of TNFα/SmacM/Z_VAD FMK-induced programmed necrosis, CellTiter-Glo viability
Assay type: cell-based
Details: HT-29 cells, necrosis induced with TNF-α 100 ng/mL, SmacM 100 nM, Z_VAD-FMK 10 μM, overnight, cell viability by chemiluminescence
Procedure: In order to verify the inhibitory effect of the compounds of the present disclosure on programmed necrosis at the cellular level, a type of cells closely related to the RIP1 pathway, namely HT-29 human colon cancer cells, were selected. The used activation mode is a combination of tumor necrosis factor (TNFα), cysteine aspartate activator mimic (SmacM) and pan-caspase inhibitor Z_VAD FMK, and the cell viability was calculated by detecting chemiluminescence values, thus obtaining the biological activity of the compound inhibiting the programmed necrosis of cells.
Cell line: HT-29 (ATCC® HTB-38™)
• 2.1. The Growth Status of HT-29 Cells was Regularly Checked to Ensure their Normal Growth. • 2.2. McCOY's 5A culture medium containing 10% FBS was preheated in a 37° C. water bath for 30 minutes. When the culture medium was ready for use, the cell passage and inoculation was performed in a Class II safety cabinet with aseptic technique. • 2.3. In a T75 culture flask, when the growth density of cells reached the abundance of approximately 80%, the culture medium was aspirated and cells were washed twice with pre-warmed PBS. • 2.4. 2-3 mL of trypsin (Gibco, catalog number 25200-056) was added and the T75 culture flask was transferred to a 37° C. incubator. • 2.5. After 3-5 minutes, the side of the culture flask was tapped and examined under a microscope for detachment of the cells to the flask. If necessary, the cells were placed back into the incubator to wait for another 5-10 minutes until 85% of the cells were detached from each other. • 2.6. 6-9 mL of complete cell culture medium was quickly added to terminate the trypsin reaction, and then the cells were transferred to a sterile 15 mL centrifuge tube. The cells were pelleted by centrifugation at 300 g for 5-7 minutes in a centrifuge, and then the supernatant was decanted. • 2.7. The cells were resuspended in 10 mL of fresh cell culture medium and the cells were counted by using a hemocytometer. • 2.8. 3,000 cells contained in 100 μL were inoculated into each well of a sterile 96-well cell culture plate (Corning 3903) and cultured overnight at 37° C. under 5% CO2.
• 3.1. All batches of compounds were dissolved in dimethyl sulfoxide (DMSO) to prepare a 20 mM stock. • 3.2. 3 μL of 20 mM stock of each compound was added to 27 μL of DMSO and mixed thoroughly, and then diluted at a dilution ratio of […] (20 μL compound+40 μL DMSO) until the 10-12 points ended. After the compounds were diluted, they were set aside for use. • 3.3. The cell culture plate was taken out from the incubator, washed once with PBS, and replaced with a fresh culture medium free of serum. A mixture of TNF-α (100 ng/mL), SMAC mimic (SmacM, 100 nM) and Z_VAD-FMK (10 μM) was added to induce the programmed necrosis in HT-29 cells. • 3.4. The compound dilution plate was prepared, 0.5 μL of the diluted compound was added to the corresponding 96-well plate, and mixed gently. Two duplicate wells were prepared for each compound. • 3.5. The treated 96-well plate to which the compounds had been added was placed back into the 37° C. incubator containing 5% CO2 and incubated overnight.
The luminescence cell viability detection kit was used to calculate the activity of the compound by measuring the ATP content in viable cells. • 4.1. The CellTiter-Glo® buffer and dry powdered substrate were equilibrated to room temperature before use. • 4.2. The CellTiter-Glo® substrate was resuspended with Cell Titer-Glo® buffer, then homogeneously mixed by gently vortexing. • 4.3. The cell culture plate was taken out and equilibrated at room temperature for 10 minutes (usually not suitable if more than 30 minutes). • 4.4. 20 μL of enzyme/substrate mixture was added into the 96-well assay plate with a multi-channel pipettor. • 4.5. The 96-well assay plate was placed on a shaker and the content was mixed for 2-3 minutes to promote the cell lysis. • 4.6. […]

| Structure (SMILES) | EC50 |
| --- | --- |
| Nc1ncc(C#Cc2cncc(-n3cc4c(n3)C(c3cc(F)cc(F)c3)CC4)c2)cn1 (stereo not drawn) [Compound 48] | ≤ 0.1 µM |
| Nc1ncc(C#Cc2cncc(-n3cc4c(n3)[C@H](c3cc(F)cc(F)c3)CC4)c2)cn1 [Compound 50, (S)-5-((5-(6-(3,5-difluorophenyl)-5,6-dihydrocyclopenta[c]pyrazol-2 (4H)-yl)pyridin-3-yl)ethynyl)pyrimidin-2-amine] | ≤ 0.1 µM |
| Nc1cnc(C#Cc2cncc(-n3cc4c(n3)C(c3ccccc3)CC4)c2)cn1 (stereo not drawn) [Compound 18, 5-((5-(6-phenyl-5,6-dihydrocyclopenta[c]pyrazol-2 (4H)-yl)pyridin-3-yl)ethynyl)pyrazine-2-amine] | ≤ 0.1 µM |
| Cn1cc(C#Cc2cccc(-n3cc4c(n3)C(c3ccccc3)CC4)c2)cn1 (stereo not drawn) [Compound 25, 2-(3-((1-methyl-iH-pyrazole-4-yl)ethynyl)phenyl)-6-phenyl-2,4,5,6-tetrahydrocyclopenta[c]pyrazole] | ≤ 0.1 µM |
| Nc1ncc(C#Cc2cncc(-n3cc4c(n3)[C@@H](c3cccc(F)c3)CC4)c2)cn1 [Compound 47, (R)-5-((5-(6-(3-fluorophenyl)-5,6-dihydrocyclopenta[c]pyrazol-2 (4H)-yl)pyridine-3-yl)ethynyl)pyrimidin-2-amine] | ≤ 0.1 µM |
| Cc1cnn(C)c1C#Cc1cccc(-n2cc3c(n2)C(c2ccccc2)CC3)c1 (stereo not drawn) [Compound 22, 2-(3-((1,4-dimethyl-1H-pyrazole-5-yl)ethynyl)phenyl)-6-phenyl-2,4,5,6-tetrahydrocyclopenta[c]pyrazole] | ≤ 0.1 µM |
| Nc1ncc(C#Cc2cncc(-n3cc4c(n3)C(c3ccccc3)CC4)n2)cn1 (stereo not drawn) [Compound 29] | ≤ 0.1 µM |
| Nc1ncc(C#Cc2cncc(-n3cc4c(n3)[C@@H](c3ccccc3)CC4)c2)cn1 [Compound 13, (R)-5-((5-(6-phenyl-5,6-dihydrocyclopenta[c]pyrazol-2 (4H)-yl)pyridin-3-yl)ethynyl)pyrimidin-2-amine] | ≤ 0.1 µM |
| N#Cc1cc(F)cc(C2CCc3cn(-c4cncc(C#Cc5cnc(N)nc5)c4)nc32)c1 (stereo not drawn) [Compound 20, 3-(2-(5-((2-aminopyrimidin-5-yl)ethynyl)pyridin-3-yl)-2,4,5,6-tetrahydrocyclopenta[c]pyrazol-6-yl)-5-fluorobenzonitrile] | ≤ 0.1 µM |
| Cn1nccc1C#Cc1cccc(-n2cc3c(n2)C(c2ccccc2)CC3)c1 (stereo not drawn) [Compound 23, 2-(3-((1-methyl-1H-pyrazole-5-yl)ethynyl)phenyl)-6-phenyl-2,4,5,6-tetrahydrocyclopenta[c]pyrazole] | ≤ 0.1 µM |
| Cc1ccc(C#Cc2cccc(-n3cc4c(n3)C(c3ccccc3)CC4)c2)cn1 (stereo not drawn) [Compound 35, 2-(3-((6-methylpyridin-3-yl)ethynyl)phenyl)-6-phenyl-2,4,5,6-tetrahydrocyclopenta[c]pyrazole] | ≤ 0.1 µM |
| Nc1ccc(C#Cc2cncc(-n3cc4c(n3)C(c3ccccc3)CC4)c2)nn1 (stereo not drawn) [Compound 17, 6-((5-(6-phenyl-5,6-dihydrocyclopenta[c]pyrazol-2 (4H)-yl)pyridin-3-yl)ethynyl)pyridazine-3-amine] | ≤ 0.1 µM |
| Cc1cncc(C#Cc2cccc(-n3cc4c(n3)C(c3ccccc3)CC4)c2)c1 (stereo not drawn) [Compound 34, 2-(3-((5-methylpyridin-3-yl)ethynyl)phenyl)-6-phenyl-2,4,5,6-tetrahydrocyclopenta[c]pyrazole] | ≤ 0.1 µM |
| Clc1ncc(C#Cc2cncc(-n3cc4c(n3)C(c3ccccc3)CC4)c2)cn1 (stereo not drawn) [Compound 41, 2-(5-((2-chloropyrimidin-5-yl)ethynyl)pyridin-3-yl)-6-phenyl-2,4,5,6-tetrahydrocyclopenta[c]pyrazole] | 0.1 to 1 µM |
| Nc1ncc(C#Cc2cncc(-n3cc4c(n3)[C@H](c3cccc(F)c3)CC4)c2)cn1 [Compound 46] | ≤ 0.1 µM |
| Nc1ncc(C#Cc2cncc(-n3cc4c(n3)C(c3cncc(F)c3)CC4)c2)cn1 (stereo not drawn) [Compound 19, 5-((5-(6-(5-fluoropyridin-3-yl)-5,6-dihydrocyclopenta[c]pyrazol-2 (4H)-yl)pyridin-3-yl)ethynyl)pyrimidin-2-amine] | ≤ 0.1 µM |
| Cc1ncc(C#Cc2cnc(N)nc2)cc1-n1nc2c(n1)C(C1CCCCC1)CC2 (stereo not drawn) [Compound 64, 5-((5-(4-cyclohexyl-5,6-dihydrocyclopenta[d][1,2,3]triazol-2 (4H)-yl)-6-methylpyridin-3-yl)ethynyl)pyrimidin-2-amine] | ≤ 0.1 µM |
| C(#Cc1cnc2cccnn12)c1ccnc(-n2cc3c(n2)C(c2ccccc2)CC3)c1 (stereo not drawn) [Compound 27] | ≤ 0.1 µM |
| Cn1cc(C#Cc2cncc(-n3cc4c(n3)[C@H](c3ccccc3)CC4)c2)cnc1=O [Compound 21, (S)-1-methyl-5-((5-(6-phenyl-5,6-dihydrocyclopenta[c]pyrazol-2 (4H)-yl)pyridin-3-yl)ethynyl)pyrimidine-2 (1H)-one] | 0.1 to 1 µM |
| C(#Cc1cnc2cccnn12)c1cncc(-n2cc3c(n2)C(c2ccccc2)CC3)n1 (stereo not drawn) [Compound 26, 3-((6-(6-phenyl-5,6-dihydrocyclopenta[c]pyrazol-2 (4H)-yl)pyrazin-2-yl)ethynyl)imidazo[1,2-b]pyridazine] | ≤ 0.1 µM |
| Oc1cnc(C#Cc2cncc(-n3cc4c(n3)C(c3ccccc3)CC4)c2)cn1 (stereo not drawn) [Compound 12, 5-((5-(6-phenyl-5,6-dihydrocyclopenta[c]pyrazol-2 (4H)-yl)pyridin-3-yl)ethynyl)pyrazine-2-ol] | > 1 µM |
| C(#Cc1cnc2cccnn12)c1cc(-n2cc3c(n2)C(c2ccccc2)CC3)ncn1 (stereo not drawn) [Compound 8, 3-((6-(6-phenyl-5,6-dihydrocyclopenta[c]pyrazol-2 (4H)-yl)pyrimidine-4-yl)ethynyl)imidazo[1,2-b]pyridazine] | 0.1 to 1 µM |
| Nc1ncc(C#Cc2cncc(-n3cc4c(n3)[C@@H](c3cc(F)cc(F)c3)CC4)c2)cn1 [Compound 49, (R)-5-((5-(6-(3,5-difluorophenyl)-5,6-dihydrocyclopenta[c]pyrazol-2 (4H)-yl)pyridin-3-yl)ethynyl)pyrimidin-2-amine] | ≤ 0.1 µM |
| Cn1c(-n2nc3c(n2)C(c2cncc(F)c2)CC3)cc(C#Cc2cnc(N)nc2)cc1=O (stereo not drawn) [Compound 59, 4-((2-aminopyrimidin-5-yl)ethynyl)-6-(4-(5-fluoropyridin-3-yl)-5,6-dihydrocyclopenta[d][1,2,3]triazol-2 (4H)-yl)-1-methylpyridin-2 (1H)-one] | ≤ 0.1 µM |
| Cc1c(C#Cc2cnc(N)nc2)cncc1-n1cc2c(n1)C(c1ccccc1)CC2 (stereo not drawn) [Compound 43, 5-((4-methyl-5-(6-phenyl-5,6-dihydrocyclopenta[c]pyrazol-2 (4H)-yl)pyridine-3-yl)ethynyl)pyrimidin-2-amine] | ≤ 0.1 µM |
| C(#Cc1cnc2cccnn12)c1cccc(-n2nc3c(n2)C(c2ccccc2)CC3)c1 (stereo not drawn) [Compound 53, 3-((3-(4-phenyl-5,6-dihydrocyclopenta[d][1,2,3]triazol-2 (4H)-yl)phenyl)ethynyl)imidazo[1,2-b]pyridazine] | ≤ 0.1 µM |
| Nc1ncc(C#Cc2c[nH]c(=O)c(-n3nc4c(n3)C(c3ccccc3)CC4)c2)cn1 (stereo not drawn) [Compound 60, 5-((2-aminopyrimidin-5-yl)ethynyl)-3-(4-phenyl-5,6-dihydrocyclopenta[d][1,2,3]triazol-2 (4H)-yl)pyridine-2 (1H)-one] | > 1 µM |
